From paper PMC9046087, “Structural basis of tethered agonism of the adhesion GPCRs ADGRD1 and ADGRF1” (Nature, 2022) come the findings set out here.

Ends that are not written are not given here.

What all share (experiment): BRET assay using TRUPATH biosensors, Gi activation of ADGRF1
Common to all, as to assay type: cell-based

Experiment [1] deals with T1, ADGRF1 (Homo sapiens, UniProt Q5T601, W734A).
T1 construct: Flag (N); expressed in transfected cells; host or cells: HEK293F
Particulars: ADGRF1 W734^ECL2A. In short, it runs like this: (§1)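 G protein activation by synthetic stalk peptides, read as GFP2-to-RLuc8 emission ratio from the fifth of five successive readings. Cells: HEK293F expressing receptor (WT or mutant) with GαsS-RLuc8 or Gαi1-RLuc8 plus Gβ3 and Gγ9-GFP2 (2:1:1:1). Pre-incubated 30 min at 37 °C; substrate coelenterazine 400a.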

In experiment [2] the target is T2, ADGRF1 (Homo sapiens, UniProt Q5T601, V761A).
T2 construct: Flag (N); expressed in transfected cells; host or cells: HEK293F
To be noted: ADGRF1 V761^5.53bA, n = 3. In short, it runs like this: as §1

Experiment [3] concerns the target T3, ADGRF1 (Homo sapiens, UniProt Q5T601, F747A).
T3 construct: Flag (N); expressed in transfected cells; host or cells: HEK293F
Particulars: ADGRF1 F747^5.36bA, n = 3. In short, it runs like this:
as §1

In experiment [4] the target is T4, ADGRF1 (Homo sapiens, UniProt Q5T601, V689A).
T4 construct: Flag (N); expressed in transfected cells; host or cells: HEK293F
T4 sequence (Q5T601 20-910 V689A): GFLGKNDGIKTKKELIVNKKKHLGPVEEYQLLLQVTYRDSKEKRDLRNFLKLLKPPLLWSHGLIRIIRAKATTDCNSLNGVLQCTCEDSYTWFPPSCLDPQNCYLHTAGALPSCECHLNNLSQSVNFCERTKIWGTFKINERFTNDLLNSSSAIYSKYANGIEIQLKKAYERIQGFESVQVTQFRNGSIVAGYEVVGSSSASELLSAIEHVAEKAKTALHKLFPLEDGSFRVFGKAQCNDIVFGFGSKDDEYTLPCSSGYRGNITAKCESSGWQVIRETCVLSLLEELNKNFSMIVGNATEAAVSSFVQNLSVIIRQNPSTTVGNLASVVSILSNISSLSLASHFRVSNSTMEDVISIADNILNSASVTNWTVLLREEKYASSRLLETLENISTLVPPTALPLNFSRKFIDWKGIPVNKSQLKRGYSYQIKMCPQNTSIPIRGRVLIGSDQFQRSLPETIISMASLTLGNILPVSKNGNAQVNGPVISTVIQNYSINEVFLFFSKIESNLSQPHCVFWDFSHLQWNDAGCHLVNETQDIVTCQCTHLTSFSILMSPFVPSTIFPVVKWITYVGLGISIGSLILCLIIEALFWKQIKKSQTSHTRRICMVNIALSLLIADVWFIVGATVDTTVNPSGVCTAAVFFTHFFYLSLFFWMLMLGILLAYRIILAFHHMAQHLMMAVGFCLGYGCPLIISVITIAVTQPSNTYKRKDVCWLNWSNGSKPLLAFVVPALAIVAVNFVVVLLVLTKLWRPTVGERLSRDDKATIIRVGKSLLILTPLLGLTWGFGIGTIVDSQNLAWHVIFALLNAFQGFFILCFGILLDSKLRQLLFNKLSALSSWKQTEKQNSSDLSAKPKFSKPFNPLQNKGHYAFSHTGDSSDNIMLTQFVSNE
To be noted: ADGRF1 V689^ICL2A. In a few lines: as §1

For experiment [5], the target named is T5, ADGRF1 (Homo sapiens, UniProt Q5T601, L682A).
T5 construct: Flag (N); expressed in transfected cells; host or cells: HEK293F
Particulars: ADGRF1 L682^3.54bA. In short, it runs like this:
as §1

Experiment [6] has as its target T6, ADGRF1 (Homo sapiens, UniProt Q5T601, V732A).
T6 construct: Flag (N); expressed in transfected cells; host or cells: HEK293F
To be noted: ADGRF1 V732^ECL2A, n = 3. In short, it runs like this:
as §1

Experiment [7] has as its target T7, ADGRF1 (Homo sapiens, UniProt Q5T601, V765A).
T7 construct: Flag (N); expressed in transfected cells; host or cells: HEK293F
Particulars: ADGRF1 V765^5.57bA. In a few lines: as §1

Where [8] appears, read: n = 3, read-out: pEC50 (mean ± s.e.m.) (converted).

T2 sequence (Q5T601 20-910 V761A): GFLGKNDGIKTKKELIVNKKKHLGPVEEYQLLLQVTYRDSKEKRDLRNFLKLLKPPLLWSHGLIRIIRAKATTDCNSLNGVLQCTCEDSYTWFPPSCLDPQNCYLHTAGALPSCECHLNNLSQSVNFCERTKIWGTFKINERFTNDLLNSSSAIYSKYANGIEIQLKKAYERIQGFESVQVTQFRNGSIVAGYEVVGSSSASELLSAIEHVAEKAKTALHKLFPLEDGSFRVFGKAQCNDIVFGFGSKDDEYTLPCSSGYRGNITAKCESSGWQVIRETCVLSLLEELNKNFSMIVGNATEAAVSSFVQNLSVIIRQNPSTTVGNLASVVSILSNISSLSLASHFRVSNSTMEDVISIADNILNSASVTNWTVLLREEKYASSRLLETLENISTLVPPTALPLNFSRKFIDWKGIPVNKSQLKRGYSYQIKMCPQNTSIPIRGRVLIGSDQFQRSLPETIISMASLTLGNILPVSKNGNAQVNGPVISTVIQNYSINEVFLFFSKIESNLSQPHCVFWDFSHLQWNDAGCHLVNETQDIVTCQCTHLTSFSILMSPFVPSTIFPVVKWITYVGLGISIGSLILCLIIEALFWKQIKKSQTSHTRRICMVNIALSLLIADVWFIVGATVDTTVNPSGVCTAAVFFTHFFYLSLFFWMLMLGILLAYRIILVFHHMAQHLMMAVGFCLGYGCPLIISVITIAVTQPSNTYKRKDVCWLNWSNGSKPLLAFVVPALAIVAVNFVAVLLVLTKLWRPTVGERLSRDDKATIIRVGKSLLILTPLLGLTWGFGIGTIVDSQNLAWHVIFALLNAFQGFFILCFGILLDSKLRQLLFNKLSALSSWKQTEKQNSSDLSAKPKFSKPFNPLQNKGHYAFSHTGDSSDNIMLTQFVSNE
T5 sequence (Q5T601 20-910 L682A): as the sequence (Q5T601 20-910 V761A) above, with L663A, A742V counted along it
T6 sequence (Q5T601 20-910 V732A): as the sequence (Q5T601 20-910 V761A) above, with V713A, A742V counted along it
T7 sequence (Q5T601 20-910 V765A): as the sequence (Q5T601 20-910 V761A) above, with A742V, V746A counted along it
T1 sequence (Q5T601 20-910 W734A): as the sequence (Q5T601 20-910 V761A) above, with W715A, A742V counted along it
T3 sequence (Q5T601 20-910 F747A): as the sequence (Q5T601 20-910 V761A) above, with F728A, A742V counted along it

For TSFSILMSPFVP [pF1], the “Emax (mean ± s.e.m.)” value on ADGRF1 [1] (n = 3) is 60 ± 11 % of WT; on ADGRF1 [2], 124 ± 22 % of WT; at ADGRF1 [3] it was 80 ± 13 % of WT; on ADGRF1 [4] (n = 3), 67 ± 7 % of WT; at ADGRF1 [5] (n = 3), 79 ± 12 % of WT; on ADGRF1 [6] it was 73 ± 13 % of WT. Further, the “Emax (mean ± s.e.m.)” value on ADGRF1 [7] (n = 3) is 92 ± 16 % of WT. Besides, the EC50 on ADGRF1 [1] (setting [8]) was 138 nM; at ADGRF1 [2], 1620 nM; at ADGRF1 [3], 1220 nM; at ADGRF1 [4] (setting [8]), 263 nM; on ADGRF1 [5] (setting [8]), 269 nM; at ADGRF1 [6], 1950 nM. In addition, the EC50 on ADGRF1 [7] (setting [8]) was 912 nM.
